{
  "source": "patent US10597401B2",
  "about": "“Methods and intermediates for the preparation of omacetaxine and cephalotaxine derivatives thereof” (ALBANY MOLECULAR RESEARCH, INC., priority 2015, dated 2020)",
  "origin": "cited, not measured here",
  "settings": "background statement, no test described",
  "data": [
    {"smiles": "COC1=C[C@]23CCCN2CCc2cc4c(cc2[C@@H]3[C@@H]1O)OCO4", "note": "[cephalotaxine]", "values": [
      {"measurement": "biological activity", "result": "biologically inactive"}
    ]}
  ]
}
